# According to patent publication US20250312352A1, “GLP-1R MODULATING COMPOUNDS” (Gilead Sciences, Inc., priority 2021, published 2025):
# pEC50: −log10 of the molar value.
# Target: T1, GLP-1R (Homo sapiens, UniProt P43220)
# T1 construct: host or cells: CHO cells
# Assay: GLP-1R activation cAMP assay (Assay 1 or Assay 2)
# Type: cell-based
# Settings: cAMP increase in CHO cells stably expressing GLP-1R; compounds run on one of the two cAMP assays
# In short: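 CHO cells stably expressing human GLP-1R were incubated 1 h in HBSS/20 mM HEPES/0.1% BSA, then exposed to 10-point agonist dilutions for 30 min at 37 °C. cAMP increase was measured with an HTRF Gs dynamic kit; EC50 from sigmoidal fit of response versus log concentration.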
# T1 sequence (P43220 24-463): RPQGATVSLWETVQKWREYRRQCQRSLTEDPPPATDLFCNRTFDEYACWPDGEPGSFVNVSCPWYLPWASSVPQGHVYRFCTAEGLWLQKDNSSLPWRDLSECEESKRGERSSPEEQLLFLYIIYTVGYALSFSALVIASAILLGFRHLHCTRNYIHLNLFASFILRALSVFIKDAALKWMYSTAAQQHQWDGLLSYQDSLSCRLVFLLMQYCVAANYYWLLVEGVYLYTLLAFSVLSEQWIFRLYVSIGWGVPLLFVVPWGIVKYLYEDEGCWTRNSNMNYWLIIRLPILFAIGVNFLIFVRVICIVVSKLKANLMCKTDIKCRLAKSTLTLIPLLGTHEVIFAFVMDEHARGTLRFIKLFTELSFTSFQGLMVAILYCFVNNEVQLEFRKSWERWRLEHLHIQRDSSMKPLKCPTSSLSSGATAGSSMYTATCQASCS
row,Molecule,pEC50
1,"COCCn1c(Cc2cc(F)c(-c3cccc(OCc4nnc(OC)s4)n3)cc2Cl)nc2c(F)cc(C(=O)O)cc21 [Example 315, 2-(2-chloro-5-fluoro-4-(6-((5-methoxy-1,3,4-thiadiazol-2-yl)methoxy)pyridin-2-yl)benzyl)-4-fluoro-1-(2-methoxyethyl)-1H-benzo[d]imidazole-6-carboxylic acid]",9.12
2,"Cc1cc(Cc2nc3ccc(C(=O)O)cc3n2[C@@H]2COCC2(C)C)c(F)cc1-c1ccc(F)c(OCc2ncc(C(C)(F)F)s2)n1 [Example 337, (S)-2-(4-(6-((5-(1,1-difluoroethyl)thiazol-2-yl)methoxy)-5-fluoropyridin-2-yl)-2-fluoro-5-methylbenzyl)-1-(4,4-dimethyltetrahydrofuran-3-yl)-1H-benzo[d]imidazole-6-carboxylic acid]",8.92
3,"NC(=O)c1ncc(COc2cccc(-c3cc(F)c(Cc4nc5ccc(C(=O)O)cc5n4C[C@@H]4CCO4)cc3F)n2)s1 [Example 165, (S)-2-(4-(6-((2-carbamoylthiazol-5-yl)methoxy)pyridin-2-yl)-2,5-difluorobenzyl)-1-(oxetan-2-ylmethyl)-1H-benzo[d]imidazole-6-carboxylic acid]",8.70
4,"O=C(O)c1ccc2nc(Cc3cc(F)c(-c4cccc(OCc5cc6ccccn6n5)n4)cc3F)n(C[C@@H]3CCO3)c2c1 [Example 28, (S)-2-(2,5-difluoro-4-(6-(pyrazolo[1,5-a]pyridin-2-ylmethoxy)pyridin-2-yl)benzyl)-1-(oxetan-2-ylmethyl)-1H-benzo[d]imidazole-6-carboxylic acid]",9.36
5,"O=C(O)c1ccc2nc(Cc3cc(F)c(-c4cccc(OCc5cn6ccccc6n5)n4)cc3F)n(C[C@@H]3CCO3)c2c1 [Example 30, (S)-2-(2,5-difluoro-4-(6-(imidazo[1,2-a]pyridin-2-ylmethoxy)pyridin-2-yl)benzyl)-1-(oxetan-2-ylmethyl)-1H-benzo[d]imidazole-6-carboxylic acid]",8.70
6,"COCCn1c(Cc2cc(F)c(-c3cccc(OCc4ccc(C#CC5CNC5)cc4F)n3)cc2F)nc2ccc(C(=O)O)cc21 [Example 232, 2-(4-(6-((4-(azetidin-3-ylethynyl)-2-fluorobenzyl)oxy)pyridin-2-yl)-2,5-difluorobenzyl)-1-(2-methoxyethyl)-1H-benzo[d]imidazole-6-carboxylic acid]",8.25
7,"O=C(O)c1ccc2nc(Cc3cc(F)c(-c4cccc(OCc5cc6n(n5)CC5(CC5)C6)n4)cc3F)n(C[C@@H]3CCO3)c2c1 [Example 75, (S)-2-(4-(6-((4′,6′-dihydrospiro[cyclopropane-1,5′-pyrrolo[1,2-b]pyrazol]-2′-yl)methoxy)pyridin-2-yl)-2,5-difluorobenzyl)-1-(oxetan-2-ylmethyl)-1H-benzo[d]imidazole-6-carboxylic acid]",9.21
8,"O=C(O)c1ccc2nc(Cc3cc(F)c(-c4cccc(OCc5ncc(C6CC6)o5)n4)cc3F)n(C[C@@H]3CCO3)c2c1 [Example 63, (S)-2-(4-(6-((5-cyclopropyloxazol-2-yl)methoxy)pyridin-2-yl)-2,5-difluorobenzyl)-1-(oxetan-2-ylmethyl)-1H-benzo[d]imidazole-6-carboxylic acid]",9.05
9,"O=C(O)c1ccc2nc(Cc3cc(F)c(-c4cccc(OCc5cc(C(F)(F)F)no5)n4)cc3F)n(C[C@@H]3CCO3)c2c1 [Example 60, (S)-2-(2,5-difluoro-4-(6-((3-(trifluoromethyl)isoxazol-5-yl)methoxy)pyridin-2-yl)benzyl)-1-(oxetan-2-ylmethyl)-1H-benzo[d]imidazole-6-carboxylic acid]",8.84
10,"CNC(=O)c1cc(Cl)c(COc2cccc(-c3cc(F)c(Cc4nc5ccc(C(=O)O)cc5n4C[C@@H]4CCO4)cc3F)c2)cn1 [Example 444, (S)-2-((3′-((4-chloro-6-(methylcarbamoyl)pyridin-3-yl)methoxy)-2,5-difluoro-[1,1′-biphenyl]-4-yl)methyl)-1-(oxetan-2-ylmethyl)-1H-benzo[d]imidazole-6-carboxylic acid]",9.36
11,"2-(4-(6-((5-(difluoromethyl)thiazol-2-yl)methoxy)pyridin-2-yl)-2,5-difluorobenzyl)-4-fluoro-1-((1-(fluoromethyl)cyclopropyl)methyl)-1H-benzo[d]imidazole-6-carboxylic acid [Example 413]",9.44
12,"C[C@@H](C#N)NC(=O)c1cc(Cl)c(COc2cccc(-c3cc(F)c(Cc4nc5ccc(C(=O)O)cc5n4C[C@@H]4CCO4)cc3F)n2)cn1 [Example 201, 2-(4-(6-((4-chloro-6-(((S)-1-cyanoethyl)carbamoyl)pyridin-3-yl)methoxy)pyridin-2-yl)-2,5-difluorobenzyl)-1-(((S)-oxetan-2-yl)methyl)-1H-benzo[d]imidazole-6-carboxylic acid]",9.41
13,"COc1nnc(COc2cccc(-c3ccc(Cc4nc5ccc(C(=O)O)cc5n4[C@@H]4COCC4(C)C)cc3F)n2)s1 [Example 400, (S)-1-(4,4-dimethyltetrahydrofuran-3-yl)-2-(3-fluoro-4-(6-((5-methoxy-1,3,4-thiadiazol-2-yl)methoxy)pyridin-2-yl)benzyl)-1H-benzo[d]imidazole-6-carboxylic acid]",9.39
14,"O=C(O)c1ccc2nc(Cc3cc(F)c(-c4cccc(OCc5nnc(OC6CC(C(F)F)C6)s5)n4)cc3F)n(C[C@@H]3CCO3)c2c1 (stereo partly drawn) [Example 347, (S)-2-(4-(6-((5-(3-(difluoromethyl)cyclobutoxy)-1,3,4-thiadiazol-2-yl)methoxy)pyridin-2-yl)-2,5-difluorobenzyl)-1-(oxetan-2-ylmethyl)-1H-benzo[d]imidazole-6-carboxylic acid]",9.57
15,"COCCn1c(Cc2cc(F)c(-c3cccc(OCc4ccc(-c5ccc(N6CCCC6)nc5)cc4F)n3)cc2F)nc2ccc(C(=O)O)cc21 [Example 228, 2-(2,5-difluoro-4-(6-((2-fluoro-4-(6-(pyrrolidin-1-yl)pyridin-3-yl)benzyl)oxy)pyridin-2-yl)benzyl)-1-(2-methoxyethyl)-1H-benzo[d]imidazole-6-carboxylic acid]",7.59
16,"Cn1nc(COc2cccc(-c3cc(F)c(Cc4nc5ccc(C(=O)O)cc5n4C[C@@H]4CCO4)cc3F)n2)c2c1CCC2 [Example 73, (S)-2-(2,5-difluoro-4-(6-((1-methyl-1,4,5,6-tetrahydrocyclopenta[c]pyrazol-3-yl)methoxy)pyridin-2-yl)benzyl)-1-(oxetan-2-ylmethyl)-1H-benzo[d]imidazole-6-carboxylic acid]",8.96

# The remaining lines, values ahead:
row,pEC50,Molecule
1,9.59,"COc1nnc(COc2cc(-c3cc(F)c(Cc4nc5c(F)cc(C(=O)O)cc5n4C[C@@H]4CCO4)cc3F)ccc2F)s1 [Example 389, (S)-4-fluoro-1-(oxetan-2-ylmethyl)-2-((2,4′,5-trifluoro-3′-((5-methoxy-1,3,4-thiadiazol-2-yl)methoxy)-[1,1′-biphenyl]-4-yl)methyl)-1H-benzo[d]imidazole-6-carboxylic acid]"
2,9.43,"CC1(C)COC[C@H]1n1c(Cc2cc(F)c(-c3cccc(OCc4ncc(Cl)s4)n3)cc2F)nc2ccc(C(=O)O)cc21 [Example 254, (S)-2-(4-(6-((5-chlorothiazol-2-yl)methoxy)pyridin-2-yl)-2,5-difluorobenzyl)-1-(4,4-dimethyltetrahydrofuran-3-yl)-1H-benzo[d]imidazole-6-carboxylic acid]"
3,9.74,"COc1nnc(COc2cccc(-c3cc(F)c(Cc4nc5c(F)cc(C(=O)O)cc5n4C[C@@H]4CCO4)cc3F)n2)s1 [Example 351, (S)-2-(2,5-difluoro-4-(6-((5-methoxy-1,3,4-thiadiazol-2-yl)methoxy)pyridin-2-yl)benzyl)-4-fluoro-1-(oxetan-2-ylmethyl)-1H-benzo[d]imidazole-6-carboxylic acid]"
4,10.10,"Cn1cc(-c2cnc(COc3cccc(-c4cc(F)c(Cc5nc6c(F)cc(C(=O)O)cc6n5C[C@@H]5CCO5)cc4F)n3)s2)cn1 [Example 87, (S)-2-(2,5-difluoro-4-(6-((5-(1-methyl-1H-pyrazol-4-yl)thiazol-2-yl)methoxy)pyridin-2-yl)benzyl)-4-fluoro-1-(oxetan-2-ylmethyl)-1H-benzo[d]imidazole-6-carboxylic acid]"
5,9.72,"CC1(C)COC[C@@H]1n1c(Cc2cc(F)c(-c3cccc(OCc4ncc(C#N)s4)n3)cc2F)nc2ccc(C(=O)O)cc21 [Example 182, (R)-2-(4-(6-((5-cyanothiazol-2-yl)methoxy)pyridin-2-yl)-2,5-difluorobenzyl)-1-(4,4-dimethyltetrahydrofuran-3-yl)-1H-benzo[d]imidazole-6-carboxylic acid]"
6,10.05,"Cc1ncc(C#Cc2ccc(COc3cccc(-c4cc(F)c(Cc5nc6ccc(C(=O)O)cc6n5C[C@@H]5CCO5)cc4F)n3)c(F)c2)cn1 [Example 146, (S)-2-(2,5-difluoro-4-(6-((2-fluoro-4-((2-methylpyrimidin-5-yl)ethynyl)benzyl)oxy)pyridin-2-yl)benzyl)-1-(oxetan-2-ylmethyl)-1H-benzo[d]imidazole-6-carboxylic acid]"
7,9.64,"Cn1ccc(-c2cnc(COc3cccc(-c4cc(F)c(Cc5nc6ccc(C(=O)O)cc6n5C[C@@H]5CCO5)cc4F)n3)s2)n1 [Example 103, (S)-2-(2,5-difluoro-4-(6-((5-(1-methyl-1H-pyrazol-3-yl)thiazol-2-yl)methoxy)pyridin-2-yl)benzyl)-1-(oxetan-2-ylmethyl)-1H-benzo[d]imidazole-6-carboxylic acid]"
8,9.90,"O=C(O)c1ccc2nc(Cc3cc(F)c(-c4cccc(OCc5ccc(Cl)s5)n4)cc3F)n(C[C@@H]3CCO3)c2c1 [Example 317, (S)-2-(4-(6-((5-chlorothiophen-2-yl)methoxy)pyridin-2-yl)-2,5-difluorobenzyl)-1-(oxetan-2-ylmethyl)-1H-benzo[d]imidazole-6-carboxylic acid]"
9,10.10,"CNC(=O)c1csc(COc2cccc(-c3cc(F)c(Cc4nc5ccc(C(=O)O)cc5n4C[C@@H]4CCO4)cc3F)n2)n1 [Example 373, (S)-2-(2,5-difluoro-4-(6-((4-(methylcarbamoyl)thiazol-2-yl)methoxy)pyridin-2-yl)benzyl)-1-(oxetan-2-ylmethyl)-1H-benzo[d]imidazole-6-carboxylic acid]"
